# Patent publication US7482472B2, “Substituted isoindoles and their use” (Bayer Healthcare AG, priority 2002, dated 2009)
# Counter-ions that a name gives are not always drawn.
row,SMILES,melting point
1,O=C(Nc1cccc2c1C(=O)N(CCC(=O)N1CCN(c3ccncc3)CC1)C2)c1ccc(Cl)s1 (as salt: TFA) [Example 88],118 °C
2,"O=C(Nc1cccc2c1C(=O)N(CCC(=O)N1CCN(c3ccncc3)CC1)C2=O)c1ccc(Cl)s1 [Example 5, 5-Chloro-N-(1,3-dioxo-2-{3-oxo-3-[4-(4-pyridinyl)piperazino]propyl}-2,3-dihydro-1H-isoindol-4-yl)-2-thiophenecarboxamide]",167 °C
3,O=C(Nc1cccc2c1C(=O)N(CC(=O)N1CCN(c3cnccn3)CC1)C2=O)c1ccc(Cl)s1 [Example 6],237 °C
4,O=C(Nc1cccc2c1C(=O)N(CC(=O)N1CCN(c3ccccn3)CC1)C2=O)c1ccc(Cl)s1 [Example 7],203 °C
5,Cc1cccc(N2CCN(C(=O)CN3C(=O)c4cccc(NC(=O)c5ccc(Cl)s5)c4C3=O)CC2)c1 [Example 8],136 °C
6,N#Cc1ccc(N2CCN(C(=O)CN3C(=O)c4cccc(NC(=O)c5ccc(Cl)s5)c4C3=O)CC2)nc1 [Example 9],169 °C (dec.)
7,O=C(Nc1cccc2c1C(=O)N(CC(=O)N1CCN(c3cccc4[nH]ccc34)CC1)C2=O)c1ccc(Cl)s1 [Example 10],209 °C
8,O=C(Nc1cccc2c1C(=O)N(CC(=O)N1CCN(c3ncnc4sccc34)CC1)C2=O)c1ccc(Cl)s1 [Example 12],277 °C
9,N#Cc1nccnc1N1CCN(C(=O)CN2C(=O)c3cccc(NC(=O)c4ccc(Cl)s4)c3C2=O)CC1 [Example 13],242 °C
10,Cc1cccc(N2CCN(C(=O)CN3C(=O)c4cccc(NC(=O)c5ccc(Cl)s5)c4C3=O)CC2)n1 [Example 14],241 °C
11,CC(C)NC(=O)CN1CCN(C(=O)CN2C(=O)c3cccc(NC(=O)c4ccc(Cl)s4)c3C2=O)CC1 [Example 16],124 °C
12,CN(C)C(=O)CN1CCN(C(=O)CN2C(=O)c3cccc(NC(=O)c4ccc(Cl)s4)c3C2=O)CC1 [Example 17],189 °C
13,O=C(Nc1cccc2c1C(=O)N(CC(=O)N1CCN(CC(=O)N3CCCC3)CC1)C2=O)c1ccc(Cl)s1 [Example 19],122 °C
14,O=C(Nc1cccc2c1C(=O)N(CC(=O)N1CCN(CCCN3CCCCC3)CC1)C2=O)c1ccc(Cl)s1 [Example 20],104 °C
15,O=C(Nc1cccc2c1C(=O)N(CC(=O)N1CCN(CC(=O)N3CCOCC3)CC1)C2=O)c1ccc(Cl)s1 [Example 21],230 °C
16,COCCN1CCN(C(=O)CN2C(=O)c3cccc(NC(=O)c4ccc(Cl)s4)c3C2=O)CC1 [Example 22],158 °C
17,O=C(Nc1cccc2c1C(=O)N(CC(=O)N1CCC(NCc3cccnc3)CC1)C2=O)c1ccc(Cl)s1 [Example 24],220 °C
18,Nc1cnccc1N1CCN(C(=O)CN2C(=O)c3cccc(NC(=O)c4ccc(Cl)s4)c3C2=O)CC1 [Example 27],178 °C
19,O=C(CN1C(=O)c2cccc(NC(=O)c3ccc(Cl)s3)c2C1=O)NCC1CCN(c2ccncc2)CC1 [Example 28],256 °C
20,O=C(Nc1cccc2c1C(=O)N(CC(=O)N1CCN(c3ccc4c(c3)OCO4)CC1)C2=O)c1ccc(Cl)s1 [Example 32],203 °C
21,"O=C(Nc1cccc2c1C(=O)N(CC(=O)N1CCC(CO)CC1)C2=O)c1ccc(Cl)s1 [Example 36, 5-Chloro-N-(2-{2-[4-(hydroxymethyl)piperidino]-2-oxoethyl}-1,3-dioxo-2,3-dihydro-1H-isoindol-4-yl)-2-thiophenecarboxamide]",198 °C
22,"O=C(Nc1cccc2c1C(=O)N(C1CCN(c3ccncc3)CC1)C2=O)c1ccc(Cl)s1 [Example 63, 5-Chloro-N-{1,3-dioxo-2-[1-(4-pyridinyl)-4-piperidinyl]-2,3-dihydro-1H-isoindol-4-yl}-2-thiophenecarboxamide]",214 °C
23,O=C(Nc1cccc2c1C(=O)N(CC(=O)N1CCC(CO)CC1)C2O)c1ccc(Cl)s1 (stereo not shown) [Example 89],233 °C
24,O=C(Nc1cccc2c1C(O)N(CC(=O)N1CCC(CO)CC1)C2=O)c1ccc(Cl)s1 (stereo not shown) [Example 90],234 °C (dec.)
25,O=C(Nc1cccc2c1CN(CC(=O)N1CCC(CO)CC1)C2=O)c1ccc(Cl)s1 [Example 92],209 °C
